# Measured values: patent publication US8231721B2, “Antifungal liquid formulations” (LANXESS Deutschland GmbH, priority 2008, dated 2012)
# Assay: Solubility of IPBC in Rhodiasolv DIB and PEG 300 (HPLC of supernatant)
# Assay type: physicochemical
# Conditions: room temperature, after-stirred 12 h, supernatant by HPLC
# Protocol: Solubility of IPBC in Rhodiasolv DIB and PEG 300
# The solvent was introduced as initial charge at room temperature, and IPBC was added until a sediment persisted. It was after-stirred for a further 12 h, the solid was centrifuged off and the remaining supernatant was analyzed by means of HPLC.
smiles,measurement,value
"CCCCNC(=O)OCC#CI [IPBC, 3-iodopropargyl butylcarbamate]",solubility of IPBC in Rhodiasolv DIB,36.1 % by weight
same,solubility of IPBC in polyethylene glycol 300,44.9 % by weight
